Values quoted from earlier work as cited in Sander's compilation of Henry's law constants (doi:10.1063/1.555654).

Assay: Henry solubility constant Hcp at 298.15 K (mol/(m3 Pa))
Details: reference: Mackay and Shiu (1981); cited value

| Compound | Henry solubility constant Hcp |
| --- | --- |
| ClCC(Cl)(Cl)Cl [1,1,1,2-tetrachloroethane] | 0.0036 |
| Clc1ccc(C(c2ccc(Cl)cc2)C(Cl)(Cl)Cl)cc1 [1,1,1-trichloro-2,2-bis-(4-chlorophenyl)-ethane] | 0.19 |
| CC(Cl)(Cl)Cl [1,1,1-trichloroethane] | 0.00036 |
| ClC(Cl)C(Cl)Cl [1,1,2,2-tetrachloroethane] | 0.021 |
| ClCC(Cl)Cl [1,1,2-trichloroethane] | 0.0083 |
| CC1CCC(C)(C)C1 (stereo unspecified) [1,1,3-trimethylcyclopentane] | 6.3e-06 |
| Cc1cccc(C)c1C [1,2,3-trimethylbenzene] | 0.0031 |
| Cc1ccc(C)c(C)c1 [1,2,4-trimethylbenzene] | 0.0017 |
| Cc1ccccc1C [1,2-dimethylbenzene] | 0.002 |
| Cc1cc(C)cc(C)c1 [1,3,5-trimethylbenzene] | 0.0017 |
| C=CC=C [1,3-butadiene] | 0.00013 |
| Clc1cccc(Cl)c1 [1,3-dichlorobenzene] | 0.0028 |
| Cc1cccc(C)c1 [1,3-dimethylbenzene] | 0.0014 |
| Clc1ccc(Cl)cc1 [1,4-dichlorobenzene] | 0.0063 |
| Cc1ccc(C)cc1 [1,4-dimethylbenzene] | 0.0014 |
| C#CCC [1-butyne] | 0.00052 |
| CC(C)CCl [1-chloro-2-methylpropane] | 0.0083 |
| CCc1ccc(C)cc1 [1-ethyl-4-methylbenzene] | 0.002 |
| CCc1cccc2ccccc12 [1-ethylnaphthalene] | 0.026 |
| Cc1ccc(C(C)C)cc1 [1-methyl-4-(1-methylethyl)-benzene] | 0.0013 |
| Cc1cccc2ccccc12 [1-methylnaphthalene] | 0.022 |
| C=CCCCCCC [1-octene] | 1e-05 |
| C=CCCC [1-pentene] | 2.5e-05 |
| CC(C)CC(C)(C)C [2,2,4-trimethylpentane] | 3e-06 |
| CC(C)CCC(C)(C)C [2,2,5-trimethylhexane] | 2.9e-06 |
| CCC(C)(C)C [2,2-dimethylbutane] | 5.8e-06 |

| Compound | Henry solubility constant Hcp |
| --- | --- |
| CCCC(C)(C)C [2,2-dimethylpentane] | 3.1e-06 |
| CC(C)C(C)C(C)C [2,3,4-trimethylpentane] | 5.3e-06 |
| c1ccc2c(c1)Cc1ccccc1-2 [2,3-benzindene] | 0.12 |
| C=C(Cl)CCl [2,3-dichloropropene] | 0.0028 |
| CC(C)C(C)C [2,3-dimethylbutane] | 7.7e-06 |
| CCC(C)C(C)C (stereo unspecified) [2,3-dimethylpentane] | 5.7e-06 |
| CC(C)CC(C)C [2,4-dimethylpentane] | 3.3e-06 |
| CCc1ccc2ccccc2c1 [2-ethylnaphthalene] | 0.012 |
| C=CC(=C)C [2-methyl-1,3-butadiene] | 0.00013 |
| C=C(C)CCC [2-methyl-1-pentene] | 3.6e-05 |
| CCC(C)C [2-methylbutane] | 7.2e-06 |
| CCCCC(C)C [2-methylhexane] | 2.9e-06 |
| CCCC(C)C [2-methylpentane] | 5.9e-06 |
| CC(C)C [2-methylpropane] | 8.3e-06 |
| CCC(C)(C)CC [3,3-dimethylpentane] | 5.4e-06 |
| C=CCCl [3-chloro-1-propene] | 0.00091 |
| C=CC(C)C [3-methyl-1-butene] | 1.8e-05 |
| CCCCC(C)CC (stereo unspecified) [3-methylheptane] | 2.7e-06 |
| CCCC(C)CC (stereo unspecified) [3-methylhexane] | 4.2e-06 |
| CCC(C)CC [3-methylpentane] | 5.8e-06 |
| C=CCC(C)C [4-methyl-1-pentene] | 1.6e-05 |
| CCCCC(C)CCC (stereo unspecified) [4-methyloctane] | 1e-06 |
| CC(C)(C)c1ccccc1 [(1,1-dimethylethyl)-benzene] | 0.00083 |
| CCC(C)c1ccccc1 (stereo unspecified) [(1-methylpropyl)-benzene] | 0.00071 |
| CC(C)Cc1ccccc1 [(2-methylpropyl)-benzene] | 0.0003 |
| c1cc2c3c(cccc3c1)CC2 [acenaphthene] | 0.042 |

| Compound | Henry solubility constant Hcp |
| --- | --- |
| ClC1=C(Cl)[C@]2(Cl)[C@H]3[C@H]([C@@H]4C=C[C@H]3C4)[C@@]1(Cl)C2(Cl)Cl [aldrin] | 0.36 |
| c1ccc2cc3ccccc3cc2c1 [anthracene] | 0.17 |
| c1ccccc1 [benzene] | 0.0018 |
| c1ccc2c(c1)-c1cccc3cccc-2c13 [benzo[jk]fluorene] | 0.0045 |
| c1ccc(-c2ccccc2)cc1 [biphenyl] | 0.036 |
| Brc1ccccc1 [bromobenzene] | 0.0048 |
| CCCC [butane] | 1e-05 |
| CCCCc1ccccc1 [butylbenzene] | 0.00077 |
| Clc1ccccc1 [chlorobenzene] | 0.0029 |
| CCCl [chloroethane] | 0.005 |
| C[C@@H]1CCCC[C@@H]1C [cis-1,2-dimethylcyclohexane] | 2.8e-05 |
| Cl/C=C\CCl [cis-1,3-dichloropropene] | 0.0042 |
| C1CCCCC1 [cyclohexane] | 5.6e-05 |
| C1CCCC1 [cyclopentane] | 5.4e-05 |
| CCCCCCCCCC [decane] | 1.4e-06 |
| BrCBr [dibromomethane] | 0.031 |
| ClCCl [dichloromethane] | 0.0038 |
| ClC1=C(Cl)[C@]2(Cl)[C@@H]3[C@@H]4C[C@@H]([C@H]5O[C@@H]45)[C@@H]3[C@@]1(Cl)C2(Cl)Cl [dieldrin] | 0.91 |
| CC(C)(C)C [dimethylpropane] | 2.7e-06 |
| CCCCCCCCCCCC [dodecane] | 1.3e-06 |
| C=C [ethene] | 4.6e-05 |
| CCc1ccccc1 [ethylbenzene] | 0.0013 |
| Fc1ccccc1 [fluorobenzene] | 0.0016 |
| CCCCCCC [heptane] | 4.3e-06 |
| CCCCCC [hexane] | 5.9e-06 |
| Ic1ccccc1 [iodobenzene] | 0.0077 |

| Compound | Henry solubility constant Hcp |
| --- | --- |
| COP(=S)(Oc1cc(Cl)c(Br)cc1Cl)c1ccccc1 (stereo unspecified) [leptophos] | 3.7 |
| Cc1ccccc1 [methylbenzene] | 0.0015 |
| CC1CCCCC1 [methylcyclohexane] | 2.5e-05 |
| CC1CCCC1 [methylcyclopentane] | 2.7e-05 |
| COP(=S)(OC)Oc1ccc([N+](=O)[O-])cc1 [methylparathion] | 50 |
| c1ccc2ccccc2c1 [naphthalene] | 0.023 |
| CCCCCCCCC [nonane] | 2e-06 |
| CCCCCCCC [octane] | 3.3e-06 |
| ClC(Cl)C(Cl)(Cl)Cl [pentachloroethane] | 0.0045 |
| CCCCC [pentane] | 8e-06 |
| CCCCCc1ccccc1 [pentylbenzene] | 0.0017 |
| CCCCCC1CCCC1 [pentylcyclopentane] | 5.4e-06 |
| c1ccc2c(c1)ccc1ccccc12 [phenanthrene] | 0.25 |
| C=CC [propene] | 4.7e-05 |
| CCCc1ccccc1 [propylbenzene] | 0.0014 |
| C#CC [propyne] | 0.0009 |
| ClC(Cl)=C(Cl)Cl [tetrachloroethene] | 0.00043 |
| ClC(Cl)(Cl)Cl [tetrachloromethane] | 0.0005 |
| Cl/C=C/CCl [trans-1,3-dichloropropene] | 0.0056 |
| C[C@H]1CC[C@H](C)CC1 [trans-1,4-dimethylcyclohexane] | 1.1e-05 |
| C/C=C/CCCC [trans-2-heptene] | 2.4e-05 |
| BrC(Br)Br [tribromomethane] | 0.016 |
| ClC1C(Cl)C(Cl)C(Cl)C(Cl)C1Cl (stereo unspecified) [γ-1,2,3,4,5,6-hexachlorocyclohexane] | 3.1 |
